Results reported in US12077503B2, “Substituted cyclic amides and their use as herbicides” (FMC CORPORATION, priority 2015, dated 2024).

Tests used:
Type in all cases: in vivo
[1] = tested on: barnyardgrass (Echinochloa crus-galli); experiment: Test A preemergence; conditions: Echinochloa crus-galli, pre-emergence, 240 h, preemergence, 0 to 100 scale where 0 is no effect and 100 is complete control, read-out: Barnyardgrass plant response rating
Summary of the method: (§1)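 Preemergence directed soil spray on seeded pots, or postemergence application to plants 2–10 cm, one- to two-leaf. Solvent mixture non-phytotoxic, with surfactant. Scored ~10 d later, visually, 0–100 vs untreated.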

[2] = tested on: pigweed (Amaranthus retroflexus); experiment: Test A preemergence; conditions: Amaranthus retroflexus, pre-emergence, 240 h, preemergence, 0 to 100 scale where 0 is no effect and 100 is complete control, read-out: Pigweed plant response rating
[3] = tested on: ragweed (common ragweed, Ambrosia elatior); experiment: Test A preemergence; conditions: Ambrosia artemisiifolia, pre-emergence, 240 h, preemergence, 0 to 100 scale where 0 is no effect and 100 is complete control, read-out: Ragweed plant response rating
Summary of the method: as §1

[4] = tested on: ryegrass, Italian (Italian ryegrass, Lolium multiflorum); experiment: Test A preemergence; conditions: Lolium multiflorum, pre-emergence, 240 h, preemergence, 0 to 100 scale where 0 is no effect and 100 is complete control, read-out: Ryegrass, Italian plant response rating
Summary of the method: as §1

[5] = tested on: giant foxtail (Setaria faberii); experiment: Test A preemergence; conditions: Setaria faberi, pre-emergence, 240 h, preemergence, 0 to 100 scale where 0 is no effect and 100 is complete control, read-out: Foxtail, Giant plant response rating
Summary of the method: as §1

Kochia (Kochia scoparia) [6] = experiment: Test A preemergence; conditions: Bassia scoparia, pre-emergence, 240 h, 125 g ai/ha, preemergence; visual injury rating, 0 to 100 scale where 0 is no effect and 100 is complete control; approximately 10 d; read-out: Kochia plant response rating
Summary of the method: as §1

[7] = tested on: barnyardgrass (Echinochloa crus-galli); experiment: Test A postemergence; conditions: Echinochloa crus-galli, post-emergence, 240 h, postemergence
Summary of the method: as §1

[8] = tested on: pigweed (Amaranthus retroflexus); experiment: Test A postemergence; conditions: Amaranthus retroflexus, post-emergence, 240 h, postemergence
Summary of the method: as §1

[9] = tested on: ragweed (common ragweed, Ambrosia elatior); experiment: Test A postemergence; conditions: Ambrosia artemisiifolia, post-emergence, 240 h, postemergence
Summary of the method: as §1

[10] = tested on: giant foxtail (Setaria faberii); experiment: Test A postemergence; conditions: Setaria faberi, post-emergence, 240 h, postemergence
Summary of the method: as §1

[11] = tested on: Galium (catchweed bedstraw, Galium aparine); experiment: Test A postemergence; conditions: Galium, post-emergence, 240 h, postemergence
Summary of the method: as §1

corn (Zea mays) = experiment: Test A postemergence; conditions: Zea mays, post-emergence, 240 h, postemergence
Summary of the method: as §1

Kochia (Kochia scoparia) [12] = experiment: Test A postemergence; conditions: Bassia scoparia, post-emergence, 240 h, postemergence
Summary of the method: as §1

[13] = tested on: wheat (Triticum aestivum); experiment: Test A postemergence; conditions: Triticum aestivum, post-emergence, 240 h, 125 g ai/ha, postemergence, visual injury vs untreated controls after approx. 10 d; 0 = no effect, 100 = complete control; read-out: Wheat plant response rating (0 to 100 scale)
Summary of the method: as §1

[14] = tested on: blackgrass (Alopecurus myosuroides); experiment: Test A postemergence; conditions: Alopecurus myosuroides, post-emergence, 240 h, postemergence
Summary of the method: as §1

[15] = 125 g ai/ha, visual injury rating, approximately 10 d

Cc1ccccc1NC(=O)[C@H]1C(=O)N(C)C[C@@H]1c1ccc(C(F)(F)F)cc1 [Compound 1239]
pest or weed control at 125 g/ha [1, 15]: 80%
pest or weed control at 500 g/ha ([1]; 500 g ai/ha): 90%
pest or weed control at 125 g/ha [2, 15]: 20%
pest or weed control at 500 g/ha ([2]; 500 g ai/ha): 60%
pest or weed control at 125 g/ha [3, 15]: 0%
pest or weed control at 500 g/ha ([3]; 500 g ai/ha): 70%
pest or weed control at 125 g/ha [4, 15]: 50%
pest or weed control at 500 g/ha ([4]; 500 g ai/ha): 50%
pest or weed control at 125 g/ha [5, 15]: 90%
pest or weed control at 500 g/ha ([5]; 500 g ai/ha): 90%
pest or weed control at 125 g/ha (Kochia (Kochia scoparia) [6]): 90%
pest or weed control at 125 g/ha ([7]; 125 g ai/ha, visual injury vs untreated controls after approx. 10 d, 0 = no effect, 100 = complete control, read-out: Barnyardgrass plant response rating (0 to 100 scale)): 90%
pest or weed control at 500 g/ha ([7]; 500 g ai/ha, 0 to 100 scale, 0 is no effect, 100 is complete control, read-out: Barnyardgrass plant response rating): 80%
pest or weed control at 125 g/ha ([8]; 125 g ai/ha, visual injury vs untreated controls after approx. 10 d, 0 = no effect, 100 = complete control, read-out: Pigweed plant response rating (0 to 100 scale)): 50%
pest or weed control at 500 g/ha ([8]; 500 g ai/ha, 0 to 100 scale, 0 is no effect, 100 is complete control, read-out: Pigweed plant response rating): 50%
pest or weed control at 125 g/ha ([9]; 125 g ai/ha, visual injury vs untreated controls after approx. 10 d, 0 = no effect, 100 = complete control, read-out: Ragweed plant response rating (0 to 100 scale)): 20%
pest or weed control at 500 g/ha ([9]; 500 g ai/ha, 0 to 100 scale, 0 is no effect, 100 is complete control, read-out: Ragweed plant response rating): 60%
pest or weed control at 125 g/ha ([10]; 125 g ai/ha, visual injury vs untreated controls after approx. 10 d, 0 = no effect, 100 = complete control, read-out: Foxtail, Giant plant response rating (0 to 100 scale)): 90%
pest or weed control at 500 g/ha ([10]; 500 g ai/ha, 0 to 100 scale, 0 is no effect, 100 is complete control, read-out: Foxtail, Giant plant response rating): 90%
pest or weed control at 125 g/ha ([11]; 125 g ai/ha, visual injury vs untreated controls after approx. 10 d, 0 = no effect, 100 = complete control, read-out: Galium plant response rating (0 to 100 scale)): 60%
pest or weed control at 500 g/ha ([11]; 500 g ai/ha, 0 to 100 scale, 0 is no effect, 100 is complete control, read-out: Galium plant response rating): 60%
plant injury at 125 g/ha (corn (Zea mays); 125 g ai/ha, visual injury vs untreated controls after approx. 10 d, 0 = no effect, 100 = complete control, read-out: Corn plant response rating (0 to 100 scale)): 50%
plant injury at 500 g/ha (corn (Zea mays); 500 g ai/ha, 0 to 100 scale, 0 is no effect, 100 is complete control, read-out: Corn plant response rating): 70%
pest or weed control at 125 g/ha (Kochia (Kochia scoparia) [12]; 125 g ai/ha, visual injury vs untreated controls after approx. 10 d, 0 = no effect, 100 = complete control, read-out: Kochia plant response rating (0 to 100 scale)): 40%
pest or weed control at 500 g/ha (Kochia (Kochia scoparia) [12]; 500 g ai/ha, 0 to 100 scale, 0 is no effect, 100 is complete control, read-out: Kochia plant response rating): 70%
plant injury at 125 g/ha [13]: 30%
pest or weed control at 125 g/ha ([14]; 125 g ai/ha, visual injury vs untreated controls after approx. 10 d, 0 = no effect, 100 = complete control, read-out: Blackgrass plant response rating (0 to 100 scale)): 70%
pest or weed control at 500 g/ha ([14]; 500 g ai/ha, 0 to 100 scale, 0 is no effect, 100 is complete control, read-out: Blackgrass plant response rating): 80%
